Source: patent US20230372481A1 (priority 2020, published 2023)
Where two headings read alike, the source gives them in different places.

Assays:
[1] = tested on: CD45RA− memory T cells; type: cell-based, human; conditions: for IFNγ production WITH IL15 X3, CD45RA− / IFNγ production WITH IL15 X3, CD45RA− CD3+ / IFNγ production WITH IL15 X3, CD45RA− CD3+ CD4+ / IFNγ production WITH IL15 X3, CD45RA− CD3+ CD8+ / FOLD INCREASE OF IFNγ PRODUCTION, CD45RA− / FOLD INCREASE OF IFNγ PRODUCTION, CD45RA− CD3+ / FOLD INCREASE OF IFNγ PRODUCTION, CD45RA− CD3+ CD4+ / FOLD INCREASE OF IFNγ PRODUCTION, CD45RA− CD3+ CD8+: three peptivators
[2] = tested on: CD45RA− memory T cells; test: Phenotypic characterization of CD45RA− memory T cells in the presence of IL-15 (Table 11); type: cell-based, human; conditions: for Fold change CD127lowCD25+ (Treg): CD45RA−CD4+ subset
[3] = DAY 3 (72 hours) with IL-15 50 ng/ml
[4] = DAY 3, with minus without IL-15, three peptivators
[5] = O/N, with minus without IL-15, three peptivators
[6] = CD3+ subset, IL-15 for 72 hours
[7] = CD4+ subset, IL-15 for 72 hours
[8] = CD8+ subset, IL-15 for 72 hours
[9] = IL-15 72 hours vs control with no cytokine

Q: Which results are given for “IL15: cytokine fundamental for memory T cells that induces the activation, the proliferation and the survival of T cells”?
A: IFNγ production WITH IL15 X3, CD45RA− [1, 3]: 1.9; IFNγ production WITH IL15 X3, CD45RA− CD3+ [1, 3]: 1.7; IFNγ production WITH IL15 X3, CD45RA− CD3+ CD4+ [1, 3]: 1.5; IFNγ production WITH IL15 X3, CD45RA− CD3+ CD8+ [1, 3]: 2.7; IFNγ production W-WO, CD45RA− [1, 4]: 1.6; IFNγ production W-WO, CD45RA− CD3+ [1, 4]: 1.4; IFNγ production W-WO, CD45RA− CD3+ CD4+ [1, 4]: 1.1; IFNγ production W-WO, CD45RA− CD3+ CD8+ [1, 4]: 2.4; FOLD INCREASE OF IFNγ PRODUCTION, CD45RA− ([1]; DAY 3 with IL-15 vs without): 5.3 fold; FOLD INCREASE OF IFNγ PRODUCTION, CD45RA− CD3+ ([1]; DAY 3 with IL-15 vs without): 5.8 fold; FOLD INCREASE OF IFNγ PRODUCTION, CD45RA− CD3+ CD4+ ([1]; DAY 3 with IL-15 vs without): 3.8 fold; FOLD INCREASE OF IFNγ PRODUCTION, CD45RA− CD3+ CD8+ ([1]; DAY 3 with IL-15 vs without): 11.6 fold; IFNγ production WITH IL15 X3, CD45RA− ([1]; O/N with IL-15 50 ng/ml): 3.8; IFNγ production WITH IL15 X3, CD45RA− CD3+ ([1]; O/N with IL-15 50 ng/ml): 3.8; IFNγ production WITH IL15 X3, CD45RA− CD3+ CD4+ ([1]; O/N with IL-15 50 ng/ml): 3.8; IFNγ production WITH IL15 X3, CD45RA− CD3+ CD8+ ([1]; O/N with IL-15 50 ng/ml): 4.6; FOLD INCREASE OF IFNγ PRODUCTION, CD45RA− ([1]; O/N with IL-15 vs without): 19.2 fold; FOLD INCREASE OF IFNγ PRODUCTION, CD45RA− CD3+ ([1]; O/N with IL-15 vs without): 13.6 fold; FOLD INCREASE OF IFNγ PRODUCTION, CD45RA− CD3+ CD4+ ([1]; O/N with IL-15 vs without): 12.5 fold; FOLD INCREASE OF IFNγ PRODUCTION, CD45RA− CD3+ CD8+ ([1]; O/N with IL-15 vs without): 14.8 fold; IFNγ production W-WO, CD45RA− [1, 5]: 3.6; IFNγ production W-WO, CD45RA− CD3+ [1, 5]: 3.5; IFNγ production W-WO, CD45RA− CD3+ CD4+ [1, 5]: 3.5; IFNγ production W-WO, CD45RA− CD3+ CD8+ [1, 5]: 4.3; % Memory T cells, % CD45RA− ([1]; WITH IL15 PEPX3 72 hours): 84%; % Memory T cells, % CD45RA−CD3+ ([1]; WITH IL15 PEPX3 72 hours): 95.1%; % Memory T cells, % CD45RA−CD3+ CD4+ ([1]; WITH IL15 PEPX3 72 hours): 91.2%; % Memory T cells, % CD45RA−CD3+ CD8+ ([1]; WITH IL15 PEPX3 72 hours): 3.45%; % Memory T cells, % CD45RA− ([1]; WITH IL15 PEPX3 o/n): 97.7%; % Memory T cells, % CD45RA−CD3+ ([1]; WITH IL15 PEPX3 o/n): 94.9%; % Memory T cells, % CD45RA−CD3+ CD4+ ([1]; WITH IL15 PEPX3 o/n): 91%; % Memory T cells, % CD45RA−CD3+ CD8+ ([1]; WITH IL15 PEPX3 o/n): 6.23%; Fold change CD25+ (T cell activation marker) [2, 6]: 13.16; Fold change CD69+ (T cell activation marker) [2, 6]: 26; Fold change HLA-DR+ high (T cell activation marker) [2, 6]: 1.21; Fold change NKG2A+ (T cell exhaustion marker) [2, 6]: 0.77; Fold change PD1+ high (T cell exhaustion marker) [2, 6]: 3.43; Fold change CD25+ (T cell activation marker) ([2]; CD3+ subset, IL-15 o/n): 2.11; Fold change CD69+ (T cell activation marker) ([2]; CD3+ subset, IL-15 o/n): 3.82; Fold change HLA-DR+ high (T cell activation marker) ([2]; CD3+ subset, IL-15 o/n): 1.11; Fold change NKG2A+ (T cell exhaustion marker) ([2]; CD3+ subset, IL-15 o/n): 0.61; Fold change PD1+ high (T cell exhaustion marker) ([2]; CD3+ subset, IL-15 o/n): 1.43; Fold change CD25+ (T cell activation marker) [2, 7]: 9.88; Fold change CD69+ (T cell activation marker) [2, 7]: 27.82; Fold change HLA-DR+ high (T cell activation marker) [2, 7]: 1.22; Fold change NKG2A+ (T cell exhaustion marker) [2, 7]: 2.67; Fold change PD1+ high (T cell exhaustion marker) [2, 7]: 3.41; Fold change CD25+ (T cell activation marker) ([2]; CD4+ subset, IL-15 o/n): 2.12; Fold change CD69+ (T cell activation marker) ([2]; CD4+ subset, IL-15 o/n): 4.48; Fold change HLA-DR+ high (T cell activation marker) ([2]; CD4+ subset, IL-15 o/n): 0.97; Fold change NKG2A+ (T cell exhaustion marker) ([2]; CD4+ subset, IL-15 o/n): 0.39; Fold change PD1+ high (T cell exhaustion marker) ([2]; CD4+ subset, IL-15 o/n): 1.35; Fold change CD25+ (T cell activation marker) [2, 8]: 105; Fold change CD69+ (T cell activation marker) [2, 8]: 6.48; Fold change HLA-DR+ high (T cell activation marker) [2, 8]: 1.61; Fold change NKG2A+ (T cell exhaustion marker) [2, 8]: 1.23; Fold change PD1+ high (T cell exhaustion marker) [2, 8]: 2.97; Fold change CD25+ (T cell activation marker) ([2]; CD8+ subset, IL-15 o/n): 14.27; Fold change CD69+ (T cell activation marker) ([2]; CD8+ subset, IL-15 o/n): 2.10; Fold change HLA-DR+ high (T cell activation marker) ([2]; CD8+ subset, IL-15 o/n): 1.32; Fold change NKG2A+ (T cell exhaustion marker) ([2]; CD8+ subset, IL-15 o/n): 0.73; Fold change PD1+ high (T cell exhaustion marker) ([2]; CD8+ subset, IL-15 o/n): 1.51; Fold change CD127lowCD25+ (Treg) ([2]; IL-15 for 72 hours vs day 0 WO IL15): 7.88; Fold change CD127lowCD25+ (Treg) ([2]; IL-15 o/n vs day 0 WO IL15): 1.85; Fold time change of exhaustion marker NKG2A, CD45RA−CD3+ cells ([2]; IL-15 72 hours): 0.77 fold; Fold time change of exhaustion marker PD-1, CD45RA−CD3+ cells ([2]; IL-15 72 hours): 3.43 fold; Fold increase of activation marker CD25, CD45RA− CD3+ cells [2, 9]: 13.26 fold; Fold increase of activation marker CD69, CD45RA− CD3+ cells [2, 9]: 26 fold
